Article PMC6748410, “A phase 2 study of an oral mTORC1/mTORC2 kinase inhibitor (CC-223) for non-pancreatic neuroendocrine tumors with or without carcinoid symptoms” (PLoS ONE, 2019)

Legend:
[1] = test system: human carcinoid xenografts that secrete serotonin; set-up: method as in PMID 28864682; conditions: mice bearing human carcinoid xenografts; cited from earlier work
[2] = Rat; trial protocol; cited from earlier work
[3] = test system: serum hormones (CgA, gastrin, glucagon, serotonin); experiment: Serum hormone changes from baseline; format: in vivo, human; conditions: among 35 patients with elevated baseline levels in at least one hormone
Procedure: Central laboratories conducted serial stimulated blood biomarker assays in monocytes (CD14+) for p4E-BP1 and pPKB (also known as pAKT) for assessment of mTORC1 and mTORC2 inhibition, respectively. Monthly changes from baseline for chromogranin A (CgA), and for other serum hormones if elevated, were assayed locally.
This phase 1/2 study was not powered for inferential statistics and mostly descriptive statistics were used. All patients dosed with CC-223 were included in the safety analysis. The efficacy analysis included all patients completing at least one cycle of drug who had both baseline and one post-baseline tumor efficacy assessment, unless otherwise specified. Categorical baseline variables including tumor type-specific characteristics were summarized using frequency counts and percentage. Continuous demographic and baseline characteristic variables were summarized by descriptive statistics. A Wilcoxon signed rank test was used to analyse change from baseline in serum hormone levels at selected scheduled visits.

[4] = set-up: method as in PMID 26177599; conditions: patients with advanced solid tumors; oral once daily; cited from earlier work
[5] = Dog; trial protocol; cited from earlier work

CO[C@H]1CC[C@H](N2C(=O)CNc3ncc(-c4ccc(C(C)(C)O)nc4)nc32)CC1 [CC-223]
Volume of tumors that progressed on rapamycin, after treatment [1]: remained stable or decreased in volume from baseline | STD10 (severely toxic dose in 10% of the animals tested) [2]: 10 mg/kg | Patients with ≥50% decline from baseline in CgA [3]: 7 patients | Patients with ≥50% decline from baseline in gastrin [3]: 6 patients | Patients with ≥50% decline from baseline in glucagon [3]: 3 patients | Patients with ≥50% decline from baseline in serotonin [3]: 2 patients | Maximum tolerated dose (MTD) [4]: 45 mg/day | HNSTD (highest non-severely toxic dose) [5]: 1.5 mg/kg
